Results from ChEMBL document CHEMBL1153720, “Three dimensional pharmacophore modelling for c-Kit receptor tyrosine kinase inhibitors” (Eur J Med Chem, 2010).

Target: Mast/stem cell growth factor receptor Kit (Homo sapiens, UniProt P10721)
Assay: Inhibition of c-Kit by HTRF method

Sequence of Mast/stem cell growth factor receptor Kit (P10721 whole entry): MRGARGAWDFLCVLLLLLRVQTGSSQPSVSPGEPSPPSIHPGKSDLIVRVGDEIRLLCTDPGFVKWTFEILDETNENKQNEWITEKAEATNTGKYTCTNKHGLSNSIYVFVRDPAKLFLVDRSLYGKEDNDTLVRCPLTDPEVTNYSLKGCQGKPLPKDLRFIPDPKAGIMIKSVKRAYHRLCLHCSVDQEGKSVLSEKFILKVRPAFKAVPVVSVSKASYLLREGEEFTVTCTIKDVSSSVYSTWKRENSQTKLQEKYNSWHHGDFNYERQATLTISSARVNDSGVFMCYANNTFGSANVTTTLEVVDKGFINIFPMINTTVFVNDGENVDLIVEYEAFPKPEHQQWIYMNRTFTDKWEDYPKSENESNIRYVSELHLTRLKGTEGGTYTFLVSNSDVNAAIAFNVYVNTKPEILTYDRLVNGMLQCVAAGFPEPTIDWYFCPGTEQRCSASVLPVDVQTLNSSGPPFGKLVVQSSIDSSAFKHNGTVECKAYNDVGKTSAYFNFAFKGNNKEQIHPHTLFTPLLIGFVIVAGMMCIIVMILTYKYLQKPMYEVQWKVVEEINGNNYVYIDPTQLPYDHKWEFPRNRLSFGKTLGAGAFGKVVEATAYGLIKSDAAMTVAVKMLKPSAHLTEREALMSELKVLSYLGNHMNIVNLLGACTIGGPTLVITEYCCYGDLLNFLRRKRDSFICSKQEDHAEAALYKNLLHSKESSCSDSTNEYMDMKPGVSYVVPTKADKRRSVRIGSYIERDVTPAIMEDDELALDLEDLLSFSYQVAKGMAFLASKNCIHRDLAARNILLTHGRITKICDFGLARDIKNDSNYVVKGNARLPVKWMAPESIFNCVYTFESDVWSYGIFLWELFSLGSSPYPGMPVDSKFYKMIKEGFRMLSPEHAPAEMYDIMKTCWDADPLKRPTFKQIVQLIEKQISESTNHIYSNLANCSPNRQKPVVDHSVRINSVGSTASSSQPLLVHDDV

IC50: 200 nM
Structure (SMILES): Cc1ccccc1NC(=O)Nc1ccc(-c2c(C)sc3ncnc(N)c23)c(Cl)c1
